Test results reported in PubChem BioAssay (NCI).
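The compound was tested at five concentrations on cells cultured in 96-well plates, with a 48-hour exposure period. Definition used: TGI = concentration required for complete inhibition of growth.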

How the values were obtained:
Experiment in all cases: growth of human tumour cells (NCI), 48 h
[1] = system: SK-MEL-5 melanoma
[2] = system: SF-268 CNS
[3] = system: LOX IMVI melanoma
[4] = system: 786-0 renal
[5] = system: NCI-H226 lung
[6] = system: CCRF-CEM leukemia
[7] = system: BT-549 breast
[8] = system: SF-295 CNS
[9] = system: MALME-3M melanoma
[10] = system: COLO 205 colon
[11] = system: PC-3 prostate
[12] = system: SNB-75 CNS
[13] = system: OVCAR-5 ovarian
[14] = system: U251 CNS
[15] = system: NCI/ADR-RES ovarian
[16] = system: SF-539 CNS
[17] = system: MDA-MB-435
[18] = system: KM12 colon
[19] = system: MCF7 breast
[20] = system: UACC-257 melanoma
[21] = system: SK-MEL-2 melanoma
[22] = system: TK-10 renal
[23] = system: UACC-62 melanoma
[24] = system: SK-OV-3 ovarian
[25] = system: CAKI-1 renal
[26] = system: T-47D breast
[27] = system: HS 578T breast
[28] = system: UO-31 renal
[29] = system: HCT-116 colon
[30] = system: MDA-MB-231 breast
[31] = system: SN12C renal
[32] = system: OVCAR-3 ovarian
[33] = system: SW-620 colon
[34] = system: MDA-N
[35] = system: NCI-H23 lung
[36] = system: OVCAR-8 ovarian
[37] = system: K-562 leukemia
[38] = system: RXF 393 renal
[39] = system: ACHN renal
[40] = system: HT29 colon
[41] = system: A498 renal
[42] = system: SNB-19 CNS
[43] = system: RPMI-8226 leukemia
[44] = system: SK-MEL-28 melanoma
[45] = system: MOLT-4 leukemia
[46] = system: IGROV1 ovarian
[47] = system: HCT-15 colon
[48] = system: M14 melanoma
[49] = system: DU-145 prostate
[50] = system: EKVX NSCLC
[51] = system: NCI-H460 lung
[52] = system: HOP-62 NSCLC
[53] = system: NCI-H522 lung
[54] = system: HOP-92 NSCLC
[55] = system: HCC-2998 colon
[56] = system: OVCAR-4 ovarian
[57] = system: SR leukemia
[58] = system: A549 NSCLC

SMILES: CC1CC/C(=C\c2ccc(F)cc2)C(=O)/C1=C/c1ccc(F)cc1 (stereo unspecified)
- TGI [1]: 24.1 µM
- TGI [2]: 14.6 µM
- TGI [3]: 7 µM
- TGI [4]: 8.42 µM
- TGI [5]: 24.1 µM
- TGI [6]: 14.5 µM
- TGI [7]: 10.1 µM
- TGI [8]: 7.38 µM
- TGI [9]: 32.8 µM
- TGI [10]: 18.5 µM
- TGI [11]: 28.3 µM
- TGI [12]: 11.7 µM
- TGI [13]: 25.4 µM
- TGI [14]: 22.7 µM
- TGI [15]: 5.75 µM
- TGI [16]: 9.15 µM
- TGI [17]: 28.4 µM
- TGI [18]: 14.5 µM
- TGI [19]: 16.6 µM
- TGI [20]: 29.9 µM
- TGI [21]: 25.6 µM
- TGI [22]: 8.64 µM
- TGI [23]: 24.7 µM
- TGI [24]: 36.7 µM
- TGI [25]: 12.1 µM
- TGI [26]: 21 µM
- TGI [27]: 31.4 µM
- TGI [28]: 23.6 µM
- TGI [29]: 5.4 µM
- TGI [30]: 6.56 µM
- TGI [31]: 9.9 µM
- TGI [32]: 28.1 µM
- TGI [33]: 87.6 µM
- TGI [34]: 13.5 µM
- TGI [35]: 25.5 µM
- TGI [36]: 9.14 µM
- TGI [37]: > 100 µM
- TGI [38]: 9.98 µM
- TGI [39]: 13.6 µM
- TGI [40]: 12.1 µM
- TGI [41]: 25.3 µM
- TGI [42]: 35.5 µM
- TGI [43]: 5.52 µM
- TGI [44]: 37 µM
- TGI [45]: 8.81 µM
- TGI [46]: 11.1 µM
- TGI [47]: 5.39 µM
- TGI [48]: 39.4 µM
- TGI [49]: 17.1 µM
- TGI [50]: 17.9 µM

SMILES: CCCCCCCCCCCCCCCCOP(=O)(O)OCC(N)C(=O)O (stereo unspecified)
- TGI [1]: 32.6 µM
- TGI [2]: 41.6 µM
- TGI [3]: 28.2 µM
- TGI [4]: 41.6 µM
- TGI [5]: 50.4 µM
- TGI [6]: 65 µM
- TGI [8]: 31.3 µM
- TGI [9]: > 100 µM
- TGI [51]: 51.8 µM
- TGI [52]: 45.9 µM
- TGI [10]: 38.1 µM
- TGI [11]: 31.1 µM
- TGI [12]: 45.7 µM
- TGI [13]: 45.1 µM
- TGI [14]: 26.5 µM
- TGI [15]: > 100 µM
- TGI [16]: 39.8 µM
- TGI [17]: 39.8 µM
- TGI [18]: 30.2 µM
- TGI [20]: > 100 µM
- TGI [21]: 40.5 µM
- TGI [22]: 16.5 µM
- TGI [23]: 37 µM
- TGI [24]: 63.8 µM
- TGI [25]: 28 µM
- TGI [26]: > 100 µM
- TGI [27]: 40.8 µM
- TGI [28]: 30.8 µM
- TGI [29]: 25.4 µM
- TGI [30]: 47.4 µM
- TGI [53]: 42 µM
- TGI [31]: 37.1 µM
- TGI [54]: 38.4 µM
- TGI [55]: > 100 µM
- TGI [32]: 41.1 µM
- TGI [33]: 38.6 µM
- TGI [34]: 43.1 µM
- TGI [35]: 69.4 µM
- TGI [36]: > 100 µM
- TGI [37]: 56.9 µM
- TGI [38]: 55 µM
- TGI [39]: 32.7 µM
- TGI [40]: > 100 µM
- TGI [56]: 35.6 µM
- TGI [41]: 34.8 µM
- TGI [57]: 61.4 µM
- TGI [42]: 35.9 µM
- TGI [43]: 47.9 µM
- TGI [58]: 53.1 µM
- TGI [44]: > 100 µM
- TGI [45]: 29 µM
- TGI [46]: 34.7 µM
- TGI [47]: 61.3 µM
- TGI [48]: 46.5 µM
- TGI [49]: > 100 µM
- TGI [50]: > 100 µM
